Patent US20140041062A1, “GENETICALLY ENGINEERED MOUSE MODEL FOR AUTISM SPECTRUM DISORDER HAVING DELETION OF SHANK2 GENE AND USE THEREOF” (Industry-Academic Cooperation Foundation, Yonsei University, priority 2012, published 2014)
“Also recorded” adds a separate entry of the source.

Tests used:
Shank2−/− mice [1] = assay: Repetitive behaviors (jumping) in home cage; assay type: in vivo, mouse; details: CDPPB i.p.
Experimental: Mice in their home cages with fresh bedding were used to measure times spent in repetitive behaviors including jumping, upright scrabbling, grooming, and digging during 10 min. Jumping was defined as the behavior of a mouse where it rears on it hind legs at the corner of the cage, or along the side walls, and jumps so that the two hind legs are simultaneously off the ground. Upright scrabbling was defined as the behavior of a mouse where it rears on it hind legs at the corner of the cage, or along the side walls, and tries to climb up against the wall with the two hind legs alternatively or coordinately touching the ground. Grooming behavior was defined as stroking or scratching of face, head, or body with the two forelimbs, or licking body parts. Digging behavior was defined as the behavior of a mouse where it coordinately uses two fore legs or hind legs to dig out or displace bedding materials.
(§1) CDPPB (Ascent scientific) was dissolved in DMSO and polyethylene glycol 400 (DMSO:PEG 400=1:9) to a final concentration of 6 g/l. Wild-type and Shank2^−/− mice received intraperitoneal injection of CDPPB (10 or 3 mg/kg), or the same volume of DSMO-PEG400 mixture, 30 min before three-chamber or other behavioral assays and 40 min before brain sample preparation for immunoblot analyses. D-cycloserine (Ascent Scientific) was dissolved in saline to final concentration of 12 g/l. […]

Shank2−/− mice [2] = assay: Three-chamber social interaction assay; assay type: in vivo, mouse
Experimental: The three-chamber social interaction assay consisted of three phases. In the first phase, a wild-type or Shank2^−/− mouse was placed in the three-chambered apparatus with two small containers in the left or right (not center) chamber, and was allowed to explore the environment freely for 10 min for habituation. After 10 min, the wild-type or Shank2^−/− mouse was gently guided to the center chamber, and the two entrances to the center chamber were blocked while an inaminate object (Object) and a stranger mouse (Stranger 1) were placed in the two containers. Then, the two entrances were opened to allow the mouse in the center to explore the new environment freely for 10 min. In the third phase, the test mouse was gently guided to the center chamber again, with the blockade of the entrances. The Object was replaced with Stranger 2, followed by exploration of the Stranger 1 or 2 by the test mouse for 10 min. Exploration was defined as each instance in which wild-type or Shank2^−/− mouse tries to sniff Object/Stranger, or orients its nose towards and come close to Object/Stranger. Time spent in each chamber was measured by Ethovision 3.1 program (Noldus). Individual movement tracks were analyzed by Ethovision and modified by ImageJ to generate heat maps. In addition to time spent in chamber or in exploration, the present inventors used the preference index, which represents a difference in percent exploration time over the targets (Wang, X. et al. Hum Mol Genet 20, 3093-108 (2011)).
(§2) CDPPB (Ascent scientific) was dissolved in DMSO and polyethylene glycol 400 (DMSO:PEG 400=1:9) to a final concentration of 6 g/l. Wild-type and Shank2^−/− mice received intraperitoneal injection of CDPPB (10 or 3 mg/kg), or the same volume of DSMO-PEG400 mixture, 30 min before three-chamber or other behavioral assays and 40 min before brain sample preparation for immunoblot analyses. D-cycloserine (Ascent Scientific) was dissolved in saline to final concentration of 12 g/l. Wild-type and Shank2^−/− mice received intraperitoneal injection of D-cycloserine (20 mg/kg), or the same volume of saline, 30 min before three-chamber assays.

Shank3 knockdown = details: caused by Shank3 knockdown; cited from earlier work
NMDAR = assay: NMDA/AMPA ratio at hippocampal SC-CA1 synapses of Shank2−/− slices; assay type: cell-based, mouse; details: for NMDA/AMPA ratio: Shank2−/− SC-CA1 synapses / slices; for NMDAR function: Shank2−/− mice, figure legend
Source text: Thus, the present inventors measured the NMDA/AMPA ratio at Shank2^−/− SC-CA1 synapses. Indeed, the NMDA/AMPA ratio was reduced relative to wild-type synapses (FIG. 2e).
Reduced NMDAR function and associated signaling may contribute to autism spectrum disorder (ASD)-like behaviors in Shank2^−/− mice.
(§3) Consistent with previous findings, CDPPB also normalized the NMDA/AMPA ratio in Shank2^−/− slices (FIG. 4a). […] The smaller extents of signaling deficits in older mice (8 weeks) relative to younger mice (3-4 weeks) may reflect age-dependent reductions in NMDAR-mediated currents, and/or compensatory changes in NMDAR signaling.

Shank2−/− mice [3] = assay: Open field assay (hyperactivity); assay type: in vivo, mouse; details: CDPPB i.p.
Experimental: The size of the open field box was 40×40×40 cm, and the center zone line was 10 cm apart from the edge. Mice were placed in the center of chamber in the beginning of assay, and mouse movements were recorded with a video camera for 60 min, and analyzed by Ethovision 3.1 program (Noldus).
as §2

NMDAR signaling = assay: Immunoblot analysis of NMDAR signaling in Shank2−/− whole brains and synaptosomes after CDPPB treatment; assay type: in vivo, mouse; details: CDPPB i.p. 40 min before brain sample preparation
Experimental: For whole brain homogenates, mouse brains (3-4 wks) were briefly homogenized in 3 volumes of ice-cold homogenization buffer (0.32 M sucrose, 10 mM HEPES pH7.4, 2 mM EDTA, protease inhibitors, phosphatase inhibitors). Protein concentrations were measured by the Bradford assay. The relative amount of […]α-tubulin was used as a loading control. Synaptosomal fractions were prepared (Blackstone, C. D. et al., J Neurochem 58, 1118-26 (1992)).
as §2
Shank2 deletion may also affect NMDAR-associated signaling that it critically regulates various synaptic events including LTP and LTD (Zhu, J. J. et al. Cell 110, 443-55 (2002); Shepherd, J. D. & Huganir, R. L. Annu Rev Cell Dev Biol 23, 613-43 (2007)). […]

SC-CA1 synapses = assay: Synaptic plasticity (LTP, LTD) and basal transmission at SC-CA1 synapses of Shank2−/− mice; assay type: cell-based, mouse
Experimental: Next, the present inventors measured synaptic transmission at hippocampal Schaffer collaterals-CA1 pyramidal (SC-CA1) synapses. Basal excitatory transmission such as input-output and paired-pulse ratio was unchanged in Shank2^−/− mice (FIGS. 2a and 2b). In addition, spontaneous transmission and membrane excitability were normal in mutant animals. When synaptic plasticity was tested, long-term potentiation (LTP) induced by high frequency stimulation or theta-burst stimulation were severely impaired in Shank2^−/− mice (FIG. 2c). Long-term depression (LTD) induced by low-frequency stimulation was completely abolished also in Shank2^−/− mice (FIG. 2d). Because LTD induced by low-frequency stimulation activates both NMDA and metabotropic glutamate receptors (NMDARs and mGluRs), the present inventors isolated mGluR-LTD by bath-applying DHPG, an agonist of mGluR5, but found no difference between genotypes.
as §3

Shank2−/− mice [4] = assay: Anxiety-like behavior (elevated plus-maze, light-dark test); assay type: in vivo, mouse; details: CDPPB i.p.
Experimental: The elevated plus-maze consisted of two open arms, two closed arms, and a center area, elevated to a height of 50 cm above the floor. Mice were placed in the center area and allowed to explore the space for 8 min.
The apparatus for light-dark test consisted of light (˜600 lx) and dark (˜5 lx) chambers adhered to each other. An entrance enabled mice to freely move across the light and dark chambers. The size of light chamber was 20×30×20 cm, and that of dark chamber was 20×13×20 cm. Mice were introduced to the center of the light chamber with their heads pointing towards the opposite side of the dark chamber, and allowed to explore the apparatus freely for 10 min. The latency to enter the dark chamber, the time spent in dark and light chambers, and the number of transitions were measured. Transition was defined as the translocation of all four feet of a mouse from one to another chamber.
as §1

LTP and LTD = details: cited from earlier work
Shank2−/− mice [5] = assay: Pup retrieval assay; assay type: in vivo, mouse; details: CDPPB i.p.
Experimental: Virgin female mice were isolated for four days before pup retrieval assays. Three normal pups (1-d old; C57BL/6N) were placed at three different corners of a home cage of a test female mouse (wild-type or Shank2^−/−), and the female mouse was allowed to retrieve the pups for 10 min. Efficiency of pup retrieval was measured by the time taken to retrieve the first, second, and third pups.
as §2

[6] = system: neuroligin-1-deficient mice; details: neuroligin-1-deficient mice with reduced NMDA/AMPA ratio; cited from earlier work
autism = details: cited from earlier work

N#Cc1cccc(C(=O)Nc2cc(-c3ccccc3)nn2-c2ccccc2)c1 [CDPPB]
repeated jumping (Shank2−/− mice [1]): did not rescue
social interaction (Shank2−/− mice [2]; CDPPB 10 mg/kg i.p. 30 min before assay): substantially improves; also recorded: substantial recoveries
social novelty recognition (Shank2−/− mice [2]; CDPPB i.p.): no effect
social interaction, lower-dose (Shank2−/− mice [2]; lower-dose CDPPB (3 mg/kg i.p.)): did not rescue
reduced ERK phosphorylation (Shank3 knockdown): restores
reduced excitatory transmission (Shank3 knockdown): restores
NMDA/AMPA ratio (NMDAR): normalized
NMDAR function (NMDAR): normalizes
hyperactivity (Shank2−/− mice [3]): did not rescue
NMDAR signaling in synaptosomes (NMDAR signaling; Shank2−/− synaptosomes): fully normalized
NMDAR signaling in whole brains (NMDAR signaling; Shank2−/− whole brains): fully normalized
basal synaptic transmission (SC-CA1 synapses): without affecting
impaired LTD at SC-CA1 synapses (SC-CA1 synapses): restored
impaired LTP at SC-CA1 synapses (SC-CA1 synapses): restored
anxiety-like behaviors (Shank2−/− mice [4]): did not rescue
LTP and LTD (LTP and LTD): enhance
spatial learning (LTP and LTD): enhance
impaired pup retrieval (Shank2−/− mice [5]): did not rescue

N[C@@H]1CONC1=O [D-cycloserine]
social interaction (Shank2−/− mice [2]; D-cycloserine 20 mg/kg i.p. 30 min before assay): improved
NMDA/AMPA ratio (NMDAR): fully recovered
NMDAR function (NMDAR): normalizes
repetitive grooming [6]: rescue

O=C(Nc1cc(-c2ccccc2)nn1-c1ccccc1)c1ccc([N+](=O)[O-])cc1 [VU-29]
LTP and LTD (LTP and LTD): enhance
spatial learning (LTP and LTD): enhance

GLYX-13
therapeutic effect on autism (autism): showed a therapeutic effect
